Consider 6 compounds from patent US4826819A, “Piperidine analgesics” (priority 1986, dated 1989).

Counter-ions that a name gives are not always drawn. Like-named read-outs stand apart in the source and are kept apart here.

A short description of assay [1]: Mouse Tail-flick test (analgesic activity). It is filed as in vivo, mouse (male Charles River mice). Particulars: for % Protection (percent number of mice doubling the initial reaction time): 1 mg Kg^-1, 30 min after dosing. For orientation: In hot-plate and tail-flick tests a longer latency is read as antinociception.
The target in assay [2] is T1, μ opioid receptor (μ sites) (Cavia porcellus, UniProt A0ACM8Q262).
T1 construct: 3H-DAGO displacement
Briefly: Opiate receptor binding to μ sites (3H-DAGO). The protocol:
(§1) Radio receptor binding to μ and k sites is performed on fresh guinea pig brain homogenate prepared according to Kosterlitz. (1981).
(§2) Whole brain without cerebellum is homogenized in 50 mM, Tris-buffer (pH 7.4 at 0° C.) and centrifuged at 49,000×g×10 min. The pellet is then resuspended in the same buffer, incubated at 37° C. for 45 min. and centrifuged again.
(§3) 1.9 ml of the final homogenate (1:100 in Tris-pH 7.4, 0° C.) is used for the binding assay.
Binding to μ sites (Magnan J., 1982)
^3 H [D-Ala^2, MePhe^4, Gly-ol^5 ] Enkephalin (^3 H-DAGO), an enkephalin analogue that binds selectively to μ-receptors, is added to the biological substrate and incubated at 25° C. for 40 min., filtered through Whatman GF-C and washed with ice-cold Tris-buffer.
The filters are then dried, solubilized in Filtercount and the radioactivity monitored. Non specific binding is determined in the presence of 10^-6 M Naloxone.
(§4) For the calculation of the kinetic parameters of the binding of labelled and unlabelled ligands, the equilibrium dissociation constant (KD), and the inhibition constant (Ki) and the maximum number of binding sites (B max) are determined from saturation curves and competition experiments (Hill 1910; Scatchard 1949; Cheng and Prusoff 1973; Gillan et al. 1980).
(§5) A concentration of radioligand near KD is used in the binding assays evaluating our compounds.

Assay [3] has as its target T2, K (Kappa) opioid receptor (K sites) (Cavia porcellus, UniProt P41144).
T2 construct: performed on fresh guinea pig brain homogenate; from tissue; host or cells: guinea pig whole brain without cerebellum, homogenate
Briefly: Opiate receptor binding to K sites (tritiated Ethylketocyclazocine). Also on record: species or system guinea pig. The protocol: as §1, §2, §3
Binding to K sites (Magnan J., 1982)
The binding of tritiated Ethylketocyclazocine to brain homogenate is measured in the presence of 100 nanomolar D-Ala-D-LeuEnkephalin (DADLE) and 100 nanomolar DAGO, added to saturate the δ and μ opioid receptors respectively.
Final homogenate with solutions of the cold ligand and of the labelled ligand is incubated for 40 min at 25° C., filtered through Whatman GF/C glass filter discs and washed.
The radioactivity bound to the filters is counted by liquid scintillation spectrophotometry.
MR 2266,500 nM is utilized to determine the saturable binding.
as §4, §5

Setting [4] is: sc, 0.5 h, subcutaneous, read-out: ED50 subcutaneous.
[5] abbreviates: guinea pig brain homogenate, 25° C., 40 min, read-out: Ki, opiate receptor binding, μ.
The mark [6] stands for this setting: guinea pig brain homogenate, tritiated Ethylketocyclazocine with 100 nM DADLE and 100 nM DAGO, 25° C., 40 min, read-out: Ki, opiate receptor binding, K.

T1 sequence (A0ACM8Q262 1-400): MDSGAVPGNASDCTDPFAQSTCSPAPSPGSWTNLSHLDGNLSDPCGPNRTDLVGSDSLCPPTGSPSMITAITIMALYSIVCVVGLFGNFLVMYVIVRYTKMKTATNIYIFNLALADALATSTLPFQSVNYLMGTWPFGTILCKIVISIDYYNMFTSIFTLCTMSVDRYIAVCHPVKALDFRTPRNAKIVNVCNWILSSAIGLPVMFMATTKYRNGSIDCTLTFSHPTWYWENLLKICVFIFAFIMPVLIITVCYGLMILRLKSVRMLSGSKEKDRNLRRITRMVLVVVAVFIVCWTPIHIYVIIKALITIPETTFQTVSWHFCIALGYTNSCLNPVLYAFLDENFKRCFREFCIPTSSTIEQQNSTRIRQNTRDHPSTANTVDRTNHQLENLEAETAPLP
T2 sequence (P41144 whole entry): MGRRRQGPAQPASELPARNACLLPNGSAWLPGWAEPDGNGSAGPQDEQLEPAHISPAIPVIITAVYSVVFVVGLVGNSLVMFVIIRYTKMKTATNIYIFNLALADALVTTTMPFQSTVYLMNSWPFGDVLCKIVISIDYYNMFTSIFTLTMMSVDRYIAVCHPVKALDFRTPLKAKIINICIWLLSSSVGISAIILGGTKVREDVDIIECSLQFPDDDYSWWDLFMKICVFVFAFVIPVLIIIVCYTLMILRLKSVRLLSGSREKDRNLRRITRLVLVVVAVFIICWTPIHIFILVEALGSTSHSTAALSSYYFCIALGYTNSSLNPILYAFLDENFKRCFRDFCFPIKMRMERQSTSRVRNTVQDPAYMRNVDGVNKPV

One may read the ED50 as the dose that gives a 50% effect, or the effect in half of the subjects. By Ki is commonly meant the equilibrium dissociation constant of an inhibitor or competing ligand from its target. Take `O=C(Cc1ccc(C(F)(F)F)cc1)N1CCCC[C@H]1CN1CCCC1` [Example 3, (2S)-1-(4-trifluoromethylphenylacetyl)-2-(1-pyrrolidinylmethyl) piperidine hydrochloride sesquihydrate]: the 50% effective dose (ED50) stood at 0.67 mg/kg in assay [1] (oral (os), read-out: ED50 oral) and 0.14 mg/kg in assay [1] (setting [4]). For the same compound, the Ki was determined as 2540 nM in assay [2] (read-out: Ki, opiate receptor binding, μ, guinea pig brain homogenate, 25° C., 40 min) and 4.05 nM in assay [3].

`O=C(Cc1ccc(C(F)(F)F)cc1)N1CCCCC1CN1CCCC1` (racemic) [Example 5, (2R,S)-1-(4-trifluoronethylphenylacetyl)-2-(1pyrrolidinylmethyl)piperidine hydrochloride]: the ED50 in assay [1] (oral (os), read-out: ED50 oral) stood at 1.08 mg/kg; in assay [1] (setting [4]), 0.23 mg/kg. Also, the “% Protection (percent number of mice doubling the initial reaction time)” value in assay [1] (subcutaneous) turned out to be 100%. Besides, the results for the Ki in assay [2] (setting [5]) and in assay [3] (setting [6]) were 3090 nM and 3.59 nM, respectively.

With `O=C(Cc1cccc([N+](=O)[O-])c1)N1CCCCC1CN1CCCC1` (racemic) [Example 1, (2R,S)-1-(3-nitrophenylacetyl)-2-(1-Pyrrolidinylmethyl) piperidine hydrochloride], the 50% effective dose (ED50) in assay [1] (setting [4]) stood at 0.97 mg/kg. Further, the inhibition constant Ki was greater than 10000 nM in assay [2] (setting [5]) and 5.96 nM in assay [3] (setting [6]).

With `O=C(Cc1ccc(Br)cc1)N1CCCCC1CN1CCCC1` (racemic) [Example 6, (2R,S)-1-(4-bromophenylacetyl)-2-(1-pyrrolidinylmethyl)piperidine hydrochloride], the median effective dose (ED50) in assay [1] (oral (os), read-out: ED50 oral) was determined as 4.12 mg/kg; in assay [1] (setting [4]) it was 0.52 mg/kg. In addition, the “% Protection (percent number of mice doubling the initial reaction time)” value in assay [1] (subcutaneous) came out at 80%. Moreover, the Ki was 3130 nM in assay [2] (setting [5]) and 6.61 nM in assay [3] (setting [6]).

Regarding `O=C(Cc1ccc([N+](=O)[O-])cc1)N1CCCCC1CN1CCCC1` (racemic) [Example 4, (2R,S)-1-(4-nitrophenylacetyl)-2-(1-pyrrolidinylmethyl)piperidine hydrochloride], the ED50 in assay [1] (oral (os), read-out: ED50 oral) was determined as 5.45 mg/kg; in assay [1] (setting [4]), 0.55 mg/kg. The “% Protection (percent number of mice doubling the initial reaction time)” value in assay [1] (subcutaneous) is given as 80%. Besides, the Ki stood at 12800 nM in assay [2] (setting [5]) and 37.9 nM in assay [3] (setting [6]).

On to `O=C(Cc1cccc(C(F)(F)F)c1)N1CCCCC1CN1CCCC1` (racemic) [Example 2, (2R,S)-1-(3-trifluoromethylphenylacetyl)-2-(1-pyrrolidinylmethyl)piperidinehydrochloride hemihydrate], for which the ED50 was 4.61 mg/kg in assay [1] (oral (os), read-out: ED50 oral) and 0.43 mg/kg in assay [1] (setting [4]). Moreover, the Ki in assay [2] (setting [5]) was greater than 10000 nM; in assay [3] (setting [6]) it was 3.07 nM.
